Patent US11697667B2, “Salts and polymorphs of cethromycin for the treatment of disease” (AliquantumRx, Inc., priority 2019, dated 2023)

What was measured:
[1] = system: malaria (infective sporozoites); experiment: Liver stage activity in murine malaria model; assay type: in vivo, mice
Source text: Quantifiable endpoints may include measured activity against malaria.

malaria = experiment: Mouse malaria blood stage high parasitemia parasite killing model; assay type: in vivo, mice
Source text: Additionally or alternatively, mouse malaria blood stage activity may be tested in a high parasitemia parasite killing model (n=5 mice/dose) to assess rate of killing and minimal dose and duration for cure as disclosed above and/or according to methods known in the art. Quantifiable endpoints may include measured activity against malaria.

**Q.** What does the source list for `CCC1OC(=O)C(C)C(=O)C(C)C(OC2OC(C)CC(NC)C2O)C(C)(OCC=Cc2cnc3ccccc3c2)CC(C)C(=O)C(C)C2NC(=O)OC12C` (centres unmarked) [M1 metabolite, N-desmethyl cethromycin]?
**A.** Liver stage activity relative to the activity of cethromycin chloride [1]: less than 30%; Blood stage activity relative to the activity of cethromycin chloride (malaria): less than 30%
